Source: patent US20220354894A1, “Cell Composition Comprising Radiolabled Mesenchymal Stem Cells, Use Thereof and Method for Preparing Radiolabeled Mesenchymal Stem Cells” (Boehringer Ingelheim Veterinary Medicine Belgium, priority 2019, published 2022)

Tests used:
[1] = Whole body scintigraphy biodistribution after IV, IM, SC injection in dogs (Example 4); assay type: in vivo; details: dog
Description: Three different studies were performed. In a first study, the biodistribution of intravenously administrated equine peripheral blood-derived MSCs (ePB-MSCs) was evaluated in four dogs. In the second study, the biodistribution of intramuscularly and subcutaneously administrated ePB-MSCs was evaluated in four dogs. Finally, in a third study, the biodistribution of a higher dose of ePB-MSCs following intravenous administration was evaluated in three dogs.
Four healthy adult research dogs were included in the two first studies; three dogs from the second study were re-used for the third study. All dogs were purpose bred adult beagles (16-23 months). Two males and two females were included in the first two studies and one male and two female dogs were included in the third study. The dogs were housed in groups of 2, in a pen of 4 by 4 by 2 m (L×W×H) so permanent visual, olfactorial, tactile and auditive contact between dogs was possible. Toys were provided for the dogs to play with in their pen. Cleaning of the dog pens was performed daily. The floor was covered with wood shavings to improve lying comfort for the dogs. The animals were let out in dog runs to play and run for minimal 1 hour a day. After the study this minimal time was increased depending on the need of the dogs.
In the first study, each dog received two intravenous injections; first the dogs were injected with the control product: freshly eluted ^99mTc dissolved in DMEM and at least 7 days later they received a second injection with ^99mTc-labeled ePB-MSCs. For the second study, 4 injections were administered to each dog. The dogs first received an IM injection with the control product, next a SC with the control product, then an IM injection with the ^99mTc-labeled ePB-MSCs and finally a SC administration of the ^99mTc-labeled ePB-MSCs. At least 7 days separated each injection. In the third study, the three dogs received a single IV injection with ^99mTc-labeled ePB-MSCs.
The dogs were put under general anesthesia and positioned in sternal recumbency on the gamma camera before each injection. To obtain general anesthesia, the dogs were first sedated with dexmedetomidine (12-25 μg/kg IM), next induction was obtained with propofol (dosage on effect) and anesthesia was maintained with isoflurane 1.2-1.4% (on effect) in 100% oxygen following endotracheal intubation. The intravenous injection was administered through a 22-gauge catheter in one of the cephalic veins, the intramuscular injection was performed in the left quadriceps muscle and the subcutaneous injection was administered at the back of the neck.
A two-headed gamma camera, equipped with low energy high resolution collimators (GCA 7200 A; Toshiba) was used for the scintigraphic investigation. The whole body scan was obtained with the detectors of the SPECT scanner moving simultaneous dorsally and ventrally from head to tail of the dog over 10 minutes. All dogs were kept under general anesthesia during all the acquisitions. For all 3 studies, data collection of the first hour consisted of 6 successive acquisitions of each 10 minutes. The start of the first acquisition was simultaneous with injection of the radioactive compound and the dog remained in the same position for all 6 scans. Next, in the first study, total body scans (each lasting 10 minutes) were performed at 2 h, 4 h, 8 h, 12 h, 24 h and 36 h after placebo control and labeled ePB-MSCs administration using propofol (dosage on effect). For the second and the third study, 6 successive 10 minutes' total body scans performed during the first hour after injection were followed by total body scans (each lasting 10 minutes) at 6 h and 24 h after each injection. For all studies, a syringe with a known amount of radioactivity to calculate % injected dose (ID), was simultaneous scanned with the dog. Care was taken for the dog's re-positioning on the table, to avoid too much spatial deviation on the scans following the first hour scans. […]

[2] = Planar scintigraphy biodistribution after IV injection in healthy horses (Example 6); assay type: in vivo; details: horse
Description: Four healthy adult horses (2 neutered male and 2 female horses, 7 to 19 years old) from two different breeds (2 Belgian warmblood and 2 French Trotter) were included in this study. All animals underwent a full veterinary examination before being included in the study and were stalled at least 2 days prior to the start of the study. During the study, the animals were housed in individual stables of 3.5 by 4 (L×W) according to normal housing procedures with water ad libitum and hay twice a day. During the study, a daily general clinical examination was performed (day 0-3). All horses received a total of two IV injections; the first consisted of free ^99mTc dissolved in DMEM which served as control. The second injection was administered three days later and consisted of ^99mTc-labelled ePB-MSC.
For the IV injections of the horses, a 18 G catheter was placed in the left jugular vein of each horse and sedation was achieved using detomidine hydrochloride (Domidine 10 mg/mL; Dechra, The Netherlands) 0.01 mg/kg body weight and butorphanol tartrate (butomidor 10 mg/mL; AST farma BV, Oudewater, Germany) 0.01 mg/kg body weight IV When required, detomidine hydrochloride (Domidine 10 mg/mL; Dechra) was added during the scan with a maximum of 0.002 mg/kg. The horses stood straight with all four limbs using a table to stabilize the head. On day 0, all four horses were IV injected with free ^99mTc dissolved in DMEM. Consequently, on day 3, all horses were IV injected with ^99mTc-labelled ePB-MSCs dissolved in DMEM as described above. Planar scintigraphy was performed 1 h and 6 h post-injection for both injections using a gamma camera (Equine HR, Medical Imaging Electronics) (matrix: 128×128; acquisition time: 60 seconds per time frame (60 frames); collimator: low energy high resolution (140 KeV, 15% symmetrical window); field of view: 600×410 mm). Following body parts were scanned: head, thorax and abdomen starting with the head, left thorax and left abdomen and continuing with the right abdomen and right thorax.
Distribution of the ^99mTc labelled ePB-MSCs and free ^99mTc was subjectively assessed through the whole body using Multimodality software (Nuclear diagnostics, Sweden). Different organs of interests were manually delineated for each horse at each time point: the lungs, bladder, stomach, kidney, parotid gland and thyroid. Radioactive counts per pixel were calculated for each organ of interest, decay corrected and divided by the initial injected radioactivity in the whole body to obtain a relative uptake value.

- percentage of injected dose at injection site ([1]; IM, 10 min): 29.49%
- percentage of injected dose in bladder ([1]; IM, 10 min): 0.13%
- percentage of injected dose in heart ([1]; IM, 10 min): 0.45%
- percentage of injected dose in left salivary gland ([1]; IM, 10 min): 0.02%
- percentage of injected dose in lung ([1]; IM, 10 min): 1.06%
- percentage of injected dose in right salivary gland ([1]; IM, 10 min): 0.01%
- percentage of injected dose in stomach ([1]; IM, 10 min): 1.62%
- percentage of injected dose in thyroid ([1]; IM, 10 min): 0.05%
- percentage of injected dose at injection site ([1]; IM, 60 min): 3.63%
- percentage of injected dose in bladder ([1]; IM, 60 min): 3.51%
- percentage of injected dose in heart ([1]; IM, 60 min): 2.46%
- percentage of injected dose in left salivary gland ([1]; IM, 60 min): 1.03%
- percentage of injected dose in lung ([1]; IM, 60 min): 6.92%
- percentage of injected dose in right salivary gland ([1]; IM, 60 min): 0.99%
- percentage of injected dose in stomach ([1]; IM, 60 min): 17.36%
- percentage of injected dose in thyroid ([1]; IM, 60 min): 1.10%
- percentage of injected dose at injection site ([1]; IM, 6 hours): 0.19%
- percentage of injected dose in bladder ([1]; IM, 6 hours): 4.77%
- percentage of injected dose in heart ([1]; IM, 6 hours): 1.45%
- percentage of injected dose in left salivary gland ([1]; IM, 6 hours): 1.84%
- percentage of injected dose in lung ([1]; IM, 6 hours): 4.41%
- percentage of injected dose in right salivary gland ([1]; IM, 6 hours): 1.60%
- percentage of injected dose in stomach ([1]; IM, 6 hours): 17.25%
- percentage of injected dose in thyroid ([1]; IM, 6 hours): 1.15%
- percentage of injected dose at injection site ([1]; IM, 24 hours): 0.12%
- percentage of injected dose in bladder ([1]; IM, 24 hours): 5.08%
- percentage of injected dose in heart ([1]; IM, 24 hours): 0.69%
- percentage of injected dose in left salivary gland ([1]; IM, 24 hours): 2.47%
- percentage of injected dose in lung ([1]; IM, 24 hours): 2.14%
- percentage of injected dose in right salivary gland ([1]; IM, 24 hours): 2.09%
- percentage of injected dose in stomach ([1]; IM, 24 hours): 9.36%
- percentage of injected dose in thyroid ([1]; IM, 24 hours): 0.57%
- percentage of injected dose in bladder ([1]; IV, 10 min): 0.63%
- percentage of injected dose in heart ([1]; IV, 10 min): 2.79%
- percentage of injected dose in left salivary gland ([1]; IV, 10 min): 0.33%
- percentage of injected dose in liver ([1]; IV, 10 min): 2.93%
- percentage of injected dose in lung ([1]; IV, 10 min): 3.73%
- percentage of injected dose in right salivary gland ([1]; IV, 10 min): 0.33%
- percentage of injected dose in stomach ([1]; IV, 10 min): 4.84%
- percentage of injected dose in thyroid ([1]; IV, 10 min): 0.41%
- percentage of injected dose in bladder ([1]; IV, 60 min): 1.93%
- percentage of injected dose in heart ([1]; IV, 60 min): 1.61%
- percentage of injected dose in left salivary gland ([1]; IV, 60 min): 0.77%
- percentage of injected dose in liver ([1]; IV, 60 min): 2.07%
- percentage of injected dose in lung ([1]; IV, 60 min): 2.62%
- percentage of injected dose in right salivary gland ([1]; IV, 60 min): 0.72%
- percentage of injected dose in stomach ([1]; IV, 60 min): 9.77%
- percentage of injected dose in thyroid ([1]; IV, 60 min): 0.61%
- percentage of injected dose in bladder ([1]; IV, 6 hours): 2.42%
- percentage of injected dose in heart ([1]; IV, 6 hours): 1.45%
- percentage of injected dose in left salivary gland ([1]; IV, 6 hours): 1.31%
- percentage of injected dose in liver ([1]; IV, 6 hours): 1.73%
- percentage of injected dose in lung ([1]; IV, 6 hours): 1.97%
- percentage of injected dose in right salivary gland ([1]; IV, 6 hours): 0.88%
- percentage of injected dose in stomach ([1]; IV, 6 hours): 8.98%
- percentage of injected dose in thyroid ([1]; IV, 6 hours): 0.61%
- percentage of injected dose in bladder ([1]; IV, 24 hours): 2.71%
- percentage of injected dose in heart ([1]; IV, 24 hours): 0.54%
- percentage of injected dose in left salivary gland ([1]; IV, 24 hours): 1.34%
- percentage of injected dose in liver ([1]; IV, 24 hours): 0.99%
- percentage of injected dose in lung ([1]; IV, 24 hours): 0.77%
- percentage of injected dose in right salivary gland ([1]; IV, 24 hours): 0.98%
- percentage of injected dose in stomach ([1]; IV, 24 hours): 5.02%
- percentage of injected dose in thyroid ([1]; IV, 24 hours): 0.24%
- percentage of injected dose at injection site ([1]; SC, 10 min): 27.27%
- percentage of injected dose in bladder ([1]; SC, 10 min): 0.13%
- percentage of injected dose in heart ([1]; SC, 10 min): 0.24%
- percentage of injected dose in left salivary gland ([1]; SC, 10 min): 0.12%
- percentage of injected dose in lung ([1]; SC, 10 min): 0.92%
- percentage of injected dose in right salivary gland ([1]; SC, 10 min): 0.13%
- percentage of injected dose in stomach ([1]; SC, 10 min): 0.53%
- percentage of injected dose in thyroid ([1]; SC, 10 min): 0.00%
- percentage of injected dose at injection site ([1]; SC, 60 min): 17.57%
- percentage of injected dose in bladder ([1]; SC, 60 min): 2.29%
- percentage of injected dose in heart ([1]; SC, 60 min): 1.61%
- percentage of injected dose in left salivary gland ([1]; SC, 60 min): 0.45%
- percentage of injected dose in lung ([1]; SC, 60 min): 4.86%
- percentage of injected dose in right salivary gland ([1]; SC, 60 min): 0.45%
- percentage of injected dose in stomach ([1]; SC, 60 min): 9.24%
- percentage of injected dose in thyroid ([1]; SC, 60 min): 0.00%
- percentage of injected dose at injection site ([1]; SC, 6 hours): 0.00%
- percentage of injected dose in bladder ([1]; SC, 6 hours): 2.75%
- percentage of injected dose in heart ([1]; SC, 6 hours): 1.61%
- percentage of injected dose in left salivary gland ([1]; SC, 6 hours): 1.44%
- percentage of injected dose in lung ([1]; SC, 6 hours): 4.57%
- percentage of injected dose in right salivary gland ([1]; SC, 6 hours): 1.33%
- percentage of injected dose in stomach ([1]; SC, 6 hours): 14.37%
- percentage of injected dose in thyroid ([1]; SC, 6 hours): 0.96%
- percentage of injected dose at injection site ([1]; SC, 24 hours): 0.00%
- percentage of injected dose in bladder ([1]; SC, 24 hours): 3.75%
- percentage of injected dose in heart ([1]; SC, 24 hours): 0.70%
- percentage of injected dose in left salivary gland ([1]; SC, 24 hours): 2.67%
- percentage of injected dose in lung ([1]; SC, 24 hours): 2.01%
- percentage of injected dose in right salivary gland ([1]; SC, 24 hours): 2.81%
- percentage of injected dose in stomach ([1]; SC, 24 hours): 7.32%
- percentage of injected dose in thyroid ([1]; SC, 24 hours): 0.61%
- organ with the highest uptake ([1]; all three injection routes, progressive increase until 4 to 6 hours): stomach
- radioactivity in the intestines [2]: small activity
- accumulation in the kidneys ([2]; 1 h and 6 h post-injection): no kidney accumulation
- accumulation in the stomach ([2]; 1 h and 6 h post-injection): High accumulation
- radioactivity in the bladder ([2]; 1 h and 6 h post-injection): accumulation was higher
- uptake in the lungs ([2]; 1 h and 6 h post-injection): distinct radioactive uptake
- uptake in the parotid glands ([2]; 1 h and 6 h post-injection): high uptake
- uptake in the thyroid gland ([2]; 1 h and 6 h post-injection): very high accumulation
Structure (SMILES): [O]=[99Tc](=[O])(=[O])[O-] [control product, ^99mTc Pertechnetate]
- organs with radioactivity uptake ([1]; intramuscular and subcutaneous administration): heart, lung, stomach, bladder, thyroid and salivary glands
- organs in which radioactivity accumulated ([1]; intravenous injection): heart, lung, liver, stomach, bladder, thyroid and salivary glands
- organs in which accumulation was predominantly observed ([2]; 1 h post-injection scans): stomach, thyroid, bladder and parotid glands
